Assay results taken from ChEMBL document CHEMBL1152043, “Interphenylene phenyl oxazoles: novel, potent thromboxane receptor antagonists” (Bioorg Med Chem Lett, 1992).

Legend:
Homo sapiens [1] = species: Homo sapiens; test: Tested for inhibition of platelet aggregation induced by U-46,619 (U-IPA) in human platelet rich plasma; type: functional; conditions: read-out: I50
Homo sapiens [2] = species: Homo sapiens; test: Tested for inhibition of platelet aggregation induced by arachidonic acid (AAIPA) in human platelet rich plasma; type: functional; conditions: read-out: I50
Thromboxane A2 receptor = biological target: T1, Thromboxane A2 receptor (Homo sapiens, UniProt P21731); test: Dissociation constant was determined from radioligand binding studies in human platelet membranes using Thromboxane A2 receptor radioligand [3H]-SQ 29,548.; type: cell membranes
T1 sequence (P21731 whole entry): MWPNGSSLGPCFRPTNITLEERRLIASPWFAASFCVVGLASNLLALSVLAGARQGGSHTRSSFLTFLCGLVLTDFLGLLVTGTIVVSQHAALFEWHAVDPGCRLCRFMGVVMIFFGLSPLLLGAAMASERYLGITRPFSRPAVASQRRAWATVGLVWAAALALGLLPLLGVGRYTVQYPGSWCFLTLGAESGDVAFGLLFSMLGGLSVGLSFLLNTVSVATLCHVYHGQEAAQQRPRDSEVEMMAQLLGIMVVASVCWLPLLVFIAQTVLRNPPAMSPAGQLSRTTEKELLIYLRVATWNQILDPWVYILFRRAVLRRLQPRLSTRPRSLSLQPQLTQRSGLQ

Row | SMILES | IC50 (Homo sapiens [1]) | IC50 (Homo sapiens [2]) | Kd (Thromboxane A2 receptor)
1 | O=C(O)Cc1cccc(Cc2ccccc2-c2nc(C(=O)NCCCCC3CCCCC3)co2)c1 | 6000 nM | 2000 nM | 
2 | O=C(O)Cc1ccccc1Cc1ccccc1-c1nc(C(=O)NCCCCC2CCCCC2)co1 | 330000 nM | 67000 nM | 

Now those with a lower IC50 (Homo sapiens [1]), led by results:

Row | IC50 (Homo sapiens [1]) | IC50 (Homo sapiens [2]) | Kd (Thromboxane A2 receptor) | SMILES
3 | 2000 nM | 470 nM |  | O=C(O)CCc1cccc(Cc2ccccc2-c2nc(C(=O)NCCCCC3CCCCC3)co2)c1
4 | 630 nM | 58 nM |  | O=C(O)CCCc1ccccc1Cc1ccccc1-c1nc(C(=O)NCCCCC2CCCCC2)co1
5 | 110 nM | 31 nM | 19 nM | O=C(O)CCc1ccccc1Cc1ccccc1-c1nc(C(=O)NCCCCC2CCCCC2)co1
